# Experiments:
# [1] = system: human bladder carcinoma cell line 253J; experiment: Rare sugar uptake experiment, sugar content in disrupted cell suspension of 253J; assay type: cell-based
# Description: (§1) An uptake amount of a rare sugar, which had been added to a medium, into carcinoma cells was analyzed using the cell lines of three types of cancers. As the rare sugar, four kinds, that is, D-allose, D-allulose (D-psicose), L-allulose (L-psicose), and allitol were used, while D-glucose and fructose were used as a monosaccharide which was not a rare sugar.
# (§2) Cells of each of the cell lines were cultured in RPMI-1640 media and during culturing, six sugars were each added to the resulting media and cultured. After culturing, an amount of each sugar taken up into the cells was analyzed. The medium to which no sugar was added during culturing was used as a control.
# (§3) Used were human bladder carcinoma cell lines (RT112, 253), and J82), human prostatic carcinoma cell lines (LNCa, Du145, and PC-3), and human renal cell carcinoma cell lines (ACHN, Caki-I, and Caki-II).
# (§4) After cells were cultured in RPMI-1640 (2000 mg D-glucose/L) media, the above monosaccharides and rare sugars were added to the resulting media, respectively. Described specifically, they were following seven combinations: RPMI-1640 alone (control), RPMI-1640+D-glucose, RPMI-1640+L-allulose, RPMI-1640+D-allulose, RPMI-1640+D-fructose, RPMI-1640+D-allose, and RPMI-1640+D-allitol. The final concentration of the sugar in the medium was adjusted to 10 mM and no sugar was added in the control.
# (§5) Five-ml portions of a 3.0×10^4 cells/ml cell suspension prepared using RPMI-1640 were seeded in dishes having a diameter of 6 cm (1.5×10^5 cells/dish) and cultured for 24 hours in the RPMI-1640 medium containing 2000 mg/l of D-glucose as a nutrient source. Twenty-four hours later, the media were changed to the culture solutions containing the monosaccharides and rare sugars described above in 2), respectively, followed by culturing for 48 hours.
# (§6) After culturing for 48 hours, the attached human carcinoma cells were mechanically separated and collected in a Spitz tube together with the culture solution and floating cells. After the supernatant formed by centrifugation (4° C., 1200 rpm, and 5 minutes) was removed to obtain cell pellets alone, 5 ml of a phosphate buffer physiological saline (PBS) was added for the purpose of washing to obtain a cell suspension of the cell pellets. A gain, the resulting cell suspension was centrifuged at 4° C. and 1200 rpm for 5 minutes and the supernatant was removed. To the cell pellets after washing was added 1 ml of pure water to suspend them therein. Ultrasonic disruption (intensity: 40%, 30 seconds) was then performed and the monosaccharide in the disrupted cell suspension was labeled with ABEE, followed by analysis by HPLC. From the area thus obtained, the sugar content in the cells was determined using a calibration curve. With respect to the ketose, two peaks were found after labeling with ABEE so that the sugar content in the cells was determined from the calibration curves of both peaks.
# [2] = system: renal cell carcinoma cell line (Caki-I); experiment: Cell survival assay (MTT assay), Caki-I; assay type: cell-based, human; conditions: 10 mM, 25 mM and 50 mM in MEM, 24 hours, compared with Control (p<0.05), FIG. 2
# Description: (§7) The antitumor effect of rare sugars was analyzed using the three human renal cell carcinoma cell lines (ACHN, Caki-I, and Caki-II) used in Example 1. As the rare sugars, used were the following ten rare sugars: L-allulose, D-allulose, D-allose, L-fructose, D-mannose, L-sorbose, D-tagatose, D-galactose, D-sorbose, and L-tagatose, while as monosaccharides not belonging to rare sugars, D-glucose and D-fructose were used.
# (§8) As a medium, a minimum essential medium (MEM) containing 1000 mg/l of D-glucose was used. By adjusting it to contain 10 mM, 25 mM, and 50 mM of each of the monosaccharides or rare sugars and using thus-obtained MEMs [shown by (10), (25), and (50) in the drawing], an antitumor effect of the rare sugars was evaluated.
# (§9) A 5.0×10^4 cells/ml of each of cell suspensions was formed using MEM. The resulting suspension (0.1 ml/well) was distributed in a 96-well plate, followed by culturing for 24 hours. […]
# (§10) The MTT assay is one of test methods for measuring survival and makes use of a color reaction of an insoluble formazan dye (blue) caused by the reduction of MTT which is a tetrazolium salt. […] The cell viability is determined by measuring this color reaction with a microplate reader.
# [3] = Fundamental safety tests (mutagenicity, biodegradability, oral acute toxicity, skin and eye primary irritation); conditions: conducted by a designated agency at the inventors' request
# Description: With respect to the verification of the safety of D-allose necessary for the use of it as a pharmaceutical ingredient, it was expectable that it was safe because a rare sugar was a monosaccharide present in nature, though its amount was trace. A mutagenicity test, a biodegradability test, and three acute toxicity tests (oral acute toxicity test, skin primary irritation test, and eye primary irritation test) have been determined as the most fundamental safety tests. The present inventors asked a designated agency to conduct the fundamental safety tests of D-allose.
# [4] = system: renal cell carcinoma cell line (Caki-II); experiment: Cell survival assay (MTT assay), Caki-II; assay type: cell-based, human; conditions: 10 mM, 25 mM and 50 mM in MEM, 24 hours, compared with Control (p<0.05), FIG. 3
# Description: as §7, §8, §9, §10
# [5] = system: human prostate carcinoma cell line PC-3; experiment: Rare sugar uptake experiment, sugar content in disrupted cell suspension of PC-3; assay type: cell-based
# Description: as §1, §2, §3, §4, §5, §6
compound,measurement,setting,value
O=C[C@H](O)[C@H](O)[C@H](O)[C@H](O)CO [D-allose],D-glucose content in cell,"[1]; 253J, named sugar added to RPMI-1640 at 10 mM, 48 hours, HPLC after ABEE labeling",11.5 µg
same,Content in cell of the added sugar,"[1]; human, 48 h, 10 mM",0.0 µg
same,Viability,[2],significantly reduced the viability
same,Result of fundamental safety tests,[3],no safety problems
same,Viability,[4],significantly reduced the viability
same,D-glucose content in cell,"[5]; PC-3, named sugar added to RPMI-1640 at 10 mM, 48 hours, HPLC after ABEE labeling",3.8 µg
same,Content in cell of the added sugar,"[5]; human, 48 h, 10 mM",7.5 µg

# — patent US20250249025A1, “DRUG DELIVERY CARRIER UTILIZING PROPERTY OF D-ALLOSE BEING UPTAKEN BY CANCER CELL, DRUG DELIVERY METHOD, AND COMPOSITION FOR TREATING RENAL CELL CARCINOMA” (NATIONAL UNIVERSITY CORPORATION KAGAWA UNIVERSITY, priority 2019, published 2025)
